Measurements from patent US20040176274A1, “Analgesic methods using endothelin receptor ligands” (priority 2001, published 2004).
Several values for one entry are separate records, joined by “and”; a condition that tells them apart may be missing. Equal entries are not always repeated. Where two headings read alike, the source gives them in different places. *1 amine or outer side, *2 acyl side, *3 side chain or, on linkers, in order; H or OH if unused. Where no end group is shown, it is not given here. Suc = O=C(CCC(=O)[*:2])[*:1]

Experiments:
[1] = system: ET-1-induced pain in the rat plantar hindpaw; type: in vivo
From the text: These examples are provided to illustrate the invention and should not be construed as limiting. ETA and ETB Receptors Mediate ET-1-induced Pain in the Rat Plantar Hindpaw An ET-1 animal model of acute pain was used to investigate the signaling pathways involved in endothelin receptor-mediated nociception. In this model system, acute pain was induced under sevoflurane anesthesia by subcutaneous ET-1 injection into the rat plantar hindpaw after 40 seconds of limb cooling. Injections were given either as a single 20 μl bolus for single compound or co-administration studies, or as two 10 μl injections separated by 1-2 minutes for pre-treatment studies, and were delivered into the mid plantar paw approximately 1 cm distal to the heel. Repetitive and spontaneous flinching of the ipsilateral hindpaw were counted in 5 minute blocks, beginning 5 minutes after ET-1 injection, for 75 minutes. […] Data was reported as the mean±s.e.m.

wild-type control mice = experiment: ET-1 pain behavior (biting and licking) in wild-type control mice; type: in vivo; conditions: ET-1 100 pmol s.c. mouse plantar hindpaw, 30 minutes
Description: (§1) The duration of biting and licking events was used as a measure of pain responsiveness following subcutaneous administration of ET-1(100 pmol) into the mouse plantar hindpaw. The duration of these events was assessed in five minute periods for 30 minutes after ET-1 injection.

GIRK2 knockout mice = experiment: ET-1 pain behavior (biting and licking) in GIRK2 knockout mice; type: in vivo; conditions: ET-1 100 pmol s.c. mouse plantar hindpaw, 30 minutes
Description: as §1

sciatic nerve C-fibers = experiment: Electrophysiological recording of spike activity in nociceptive C-fibers after plantar hindpaw injection; type: in vivo, rat; conditions: ET-1 2 nmoles, IRL-1620 2 nmoles; s.c. plantar hindpaw injection
From the text: FIG. 5 is a representative series of electrophysiological recordings of C-fiber activity following subcutaneous plantar hindpaw injections of (A) ET-1 alone, (B) ET-1 and IRL-1620, and (C) ET-1, IRL-1620, and naloxone. The arrow in (A) indicates the time of ET-1 injection. The first and second arrows in (B) indicate the time of IRL-1620 and IRL-1620/ET-1 injections, respectively. The first and second arrows in (C) indicate the time of IRL-1620/naloxone and ET-1/IRL-1620/naloxone injections, respectively.
In order to confirm that ETB receptor activation inhibits the ET-1-induced pain response and that the inhibition is mediated through an opioid-sensitive mechanism, the spike response of IRL-1620 alone, and in combination with naloxone, were studied in nociceptive C-fibers. Spike activity was recorded in sciatic nerve C-fibers from twelve animals following subcutaneous plantar hindpaw injections of ET-1. The mean and maximum response frequencies following injection of ET-1 alone (2 nmoles) are 0.32±0.07 imp/s and 4.17+0.17 imp/s, respectively.

[2] = system: cultured adult human primary keratinocytes; experiment: β-endorphin release from cultured keratinocytes (radioimmunoassay); type: cell-based
Description: Cultured adult human primary keratinocytes, obtained during facelift procedures, were used to confirm that keratinocytes are the source of the extracellular β-endorphin that mediates ETB receptor-induced analgesia. Cultured keratinocytes were transferred to PBS and incubated in the presence of either 10 or 200 nM IRL-1620 for thirty or sixty minutes. Subsequently, the β-endorphin concentration in the PBS was measured by radioimmunoassay. In the absence of IRL-1620, the basal level of β-endorphin was 1.76±0.08 μg/ml. […] The intracellular concentration of β-endorphin in similarly treated cultured keratinocytes was 108±48 pg β-endorphin per 10^5 cells.

[3] = entire 75 minute observation period, dosages ET-1 2 nmol, BQ-788 60 nmol, IRL-1620 2 nmol, naloxone 55 nmol, tertiapin 20 pmol, mean ± s.e.m.
[4] = s.c. rat plantar hindpaw, dosages ET-1 2 nmol, BQ-788 60 nmol, IRL-1620 2 nmol, naloxone 55 nmol, tertiapin 20 pmol, mean ± s.e.m.
[5] = without ET-1, BQ-788 60 nmol bolus or 2 x 30 nmol, naloxone 55 nmol, tertiapin 20 pmol
[6] = 0.5 μg CL prior to ET-1 (2 nmol), 75 minute observation period, ET-1 line = control
[7] = 0.5 μg CL s.c. two minutes prior to ET-1 (2 nmol), ET-1 line = control
[8] = 0.5 μg CL, or equal volume of water (ET-1 + IRL-1620 line), prior to co-administration of ET-1 (2 nmol) and IRL-1620 (2 nmol)
[9] = CTOP 18.8 nmoles co-injected with ET-1 and IRL-1620
[10] = ET-1 4 nmol, s.c. rat plantar hindpaw
[11] = ET-1 6 nmol, s.c. rat plantar hindpaw
[12] = IRL-1620 4 nmol, alone or prior and co-administered with ET-1 2 nmol

CCCC[C@@H](NC(=O)[C@@H](Cc1cn(C(=O)OC)c2ccccc12)NC(=O)[C@H](CC(C)(C)C)NC(=O)N1[C@H](C)CCC[C@@H]1C)C(=O)O (relative stereo) [BQ-788, N-cis-2,6-dimethylpiperidinocarbonyl-L-gamma-methylleucyl-D-1-methoxycarbonyltryptophanyl-D-Nle]
Total Number of Flinches [1, 3]: 17.3 ± 2.3 flinches | MFF (maximal flinch frequency) [1, 4]: 5.8 ± 0.9 flinches per 5 minutes | Time to MFF [1, 4]: 32.5 ± 10.2 min | flinching behavior when administered alone compared to PBS control [1, 5]: did not result in altered flinching behaviors

COc1ccc2c(c[n+](C)c3c4cc5c(cc4ccc23)OCO5)c1OC [CL, Chelerythrine chloride]
Total Number of Flinches [1, 6]: 253±7 | MFF (maximal flinch frequency) [1, 7]: 46±3 flinches per five minutes | MFF (maximal flinch frequency) [1, 8]: 39±3 flinches per five minutes | total flinches [1, 8]: 207±10 | toxicity ([1]; 0.8 μg CL s.c. rat plantar hindpaw): showed signs of toxicity

C=CCN1CC[C@]23c4c5ccc(O)c4O[C@H]2C(=O)CC[C@@]3(O)[C@H]1C5 [Naloxone, naloxone]
Total Number of Flinches [1, 3]: 16.1 ± 4.1 flinches | MFF (maximal flinch frequency) [1, 4]: 3.3 ± 0.8 flinches per 5 minutes | Time to MFF [1, 4]: 28.6 ± 5.6 min | flinching behavior when administered alone compared to PBS control [1, 5]: did not induce flinching behavior that was different from PBS control

Oc1ccc2c3c1O[C@H]1c4[nH]c5ccccc5c4C[C@@]4(O)[C@@H](C2)N(CC2CC2)CC[C@]314 [naltrindole]
effect on flinching behavior ([1]; naltrindole with ET-1 alone or the ET-1/IRL-1620 combination): did not affect flinching behavior

Oc1ccc2c3c1O[C@H]1c4[nH]c5c(c4C[C@@]4(O)[C@@H](C2)N(CC2CC2)CC[C@]314)C[C@@]1(O)[C@H]2Cc3ccc(O)c4c3[C@@]1(CCN2CC1CC1)[C@H]5O4 [nor-BNI]
effect on flinching caused by ET-1 administration alone ([1]; nor-BNI 3.4 mM): partially enhanced the flinching

Ala-Leu-Cys-Asn-Cys-Asn-Arg-Ile-Ile-Ile-Pro-His-Met-Cys-Trp-Lys-Lys-Cys-Gly-Lys-Lys (ALCNCNRIIIPHMCWKKCGKK) [Tertiapin, GIRK channel antagonist]
Total Number of Flinches [1, 3]: 17 ± 6 flinches | flinching behavior when administered alone compared to PBS control [1, 5]: did not induce flinching behavior that was different from naloxone or PBS control

CTOP
MFF (maximal flinch frequency) [1, 9]: 31±4 flinches/5 minutes | effect on IRL-1620 analgesia [1, 9]: blocked the analgesic effects of IRL-1620

Cys-Ser-Cys-Ser-Ser-Leu-Met-Asp-Lys-Glu-Cys-Val-Tyr-Phe-Cys-His-Leu-Asp-Ile-Ile-Trp [ET-1]
total duration of biting and licking behavior (wild-type control mice): 152 ± 18 s | total duration of biting and licking behavior (GIRK2 knockout mice): 218 ± 18 s | maximum response frequency of C-fiber spike activity (sciatic nerve C-fibers): 4.17 ± 0.17 imp/s | mean response frequency of C-fiber spike activity (sciatic nerve C-fibers): 0.32±0.07 imp/s | Total Number of Flinches [1, 6]: 153±11 | MFF (maximal flinch frequency) [1, 7]: 27±2 flinches per five minutes | flinching behavior returning to baseline ([1]; ET-1 4 nmol): ≤ 75 min | start of flinching after injection ([1]; ET-1 4 nmol): 10 to 20 min | animals with evoked ipsilateral hindpaw flinching ([1]; ET-1 4 nmol, n=12): 100% | MFF (maximal flinch frequency) [1, 10]: 40.2±3.9 flinches per 5 minutes | Time to MFF [1, 10]: 40.8 ± 2.8 min | Total Number of Flinches ([1]; ET-1 4 nmol, entire 75 minute observation period): 178.5±29.1 flinches | MFF (maximal flinch frequency) [1, 11]: 41.9±8.7 flinches per 5 minutes | Time to MFF [1, 11]: 22.5 ± 4.1 min | Total Number of Flinches ([1]; ET-1 6 nmol, entire 75 minute observation period): 253.3 ± 66.2 flinches | MFF (maximal flinch frequency) [1, 4]: 23.8±1.9 flinches per 5 minutes and 24±2 flinches per 5 minutes

Suc-Asp-Glu-Glu-Ala-Val-Tyr-Phe-Ala-His-Leu-Asp-Ile-Ile-Trp (Suc-DEEAVYFAHLDIIW) [IRL-1620, ETB receptor agonist]
flinching behavior when administered alone compared to PBS control ([1]; IRL-1620 4 nmol alone): small but significant increase in flinching behavior | MFF (maximal flinch frequency) [1, 12]: 4.7 ± 0.6 flinches per 5 minutes | Time to MFF [1, 12]: 33.3 ± 6.1 min | Total Number of Flinches ([1]; IRL-1620 4 nmol, alone or with ET-1 2 nmol, 75 minutes): 22.1 ± 3.1 flinches | change in extracellular β-endorphin ([2]; 10 nM IRL-1620, 60 minute incubation): did not result in a significant change | extracellular β-endorphin concentration ([2]; 200 nM IRL-1620 in PBS, basal level 1.76±0.08 μg/ml): 10.5 ± 3 µg/mL | increase in extracellular β-endorphin ([2]; 200 nM IRL-1620 versus basal): 5 fold | intracellular concentration of β-endorphin ([2]; similarly treated cultured keratinocytes): 108±48 pg β-endorphin per 10^5 cells
